From ChEMBL document CHEMBL2203271, “Pharmaceutical composition comprising indole compound for treatment of diseases associated with oxidative stress: patent highlight” (ACS Med Chem Lett, 2012)

Tested on: H9c2
Assay: Cytoprotective activity against tBOOH-induced oxidative stress in rat H9c2 cells after 2 hrs by SRB assay
Assay type: functional, cell-based
Conditions: H9c2, 2 h

c1ccc(-c2nc3cccc(NC4CCCC4)c3[nH]2)cc1
IC50: 600 nM

c1ccc(-c2nc3cccc(NC4CCOC4)c3[nH]2)cc1 (configuration not stated)
IC50: 2000 nM
